In patent publication EP4574151A1, “INHIBITORS OF G12V-MUTATED RAS PROTEIN TO TREAT CANCER” (Personather Spolka Z Ograniczona Odpowiedzialnoscia, priority 2023, dated 2025):

Assays:
[1] = tested on: NCI-H1975; assay: Toxicity against cancer cells expressing wild type RAS; type: cell-based; conditions: summary statement
Method: The results of in vitro analyses were presented in the examples. Commercially available cancer cell lines were used for the studies, including SW480, SW620, and COR-L23, showing endogenous expression of KRASG12V, as well as a cell line with exogenously introduced KRASG12V mutation (using methods of genetic engineering) - the DK-MGEGFRvIIIKRASG12V line. Additionally, the cancer cell line NCI- H1975, characterized by the expression of wild type RASWT proteins, was also analyzed.

[2] = tested on: SW620 cells (with RASG12V mutation); assay: Crystal violet cytotoxicity test (IC50) in KRASG12V positive cells; type: cell-based; conditions: summary statement
From the text: IC50 (half-maximal inhibitory concentration) is the concentration value of a tested compound which inhibits biochemical and biological functions of cells in half of the tested population. Determining this indicator is extremely important for assessing the cytotoxicity of molecules with therapeutic potential.
The first step in developing the methodology for determining IC50 was to conduct density tests to determine the appropriate number of cells to use in cytotoxicity tests. The different content of bovine fetal serum in the culture medium was also investigated to rule out any potential impact on the reduction in cell count, regardless of the analyzed molecules.
(§1) As a research model, colon cancer and lung cancer cell lines (sensitive lines) were used, including SW620, SW480, and COR-L23, respectively, which are characterized by the KRASG12V gene mutation and lack of other alterations in genes belonging to the RAS protein signaling pathway, as well as a stable line of normal cells (mouse fibroblasts), which serve as a platform for evaluating the impact of tested compounds on non-cancer cells. Below is the result for one of the analyzed cell lines with the mutation. Similar differences in IC50 values compared to normal cells were obtained for the other cell lines mentioned above with the RASG12V mutation.
(§2) The effect of molecules on the biology of selected cell lines to assess their cytotoxicity using the IC50 indicator was carried out according to the protocol below: • 1. The cells of the tested lines were seeded in wells of a 96-well plate at specified densities. • 2. After seeding, the cells were subjected to a 24-hour incubation in medium with a 1% and 2.5% addition of serum (sensitive lines) or in medium with a 0.5% addition of serum (normal line). • 3. The cells were exposed to selected molecules at selected concentrations. The control was provided by the culture medium without any added compounds. Concentrations of the tested molecules [uM]: • □ NIH3T3: 500; 250; 125; 62,5; 31,25 • □ SW620: 60; 30; 15; 7,5; 3,75 • 4. After 72 hours of incubation, the culture medium was removed and the cells were washed twice with buffer saline solution (PBS). Then, the cells were incubated for 10 minutes with a 0.1% solution of crystal violet at room temperature (Merck Millipore). • 5. After 10 minutes, the crystal violet solution was removed and the wells of the 96-well plate were washed twice with PBS solution. • 4. 50% ice-cold acetic acid solution was added to each well and incubated again for 10 minutes at room temperature on a shaker at 650 rpm. • 5. Absorbance measurement was performed using a plate reader, at a wavelength of λ = 540 nm

[3] = tested on: NIH/3T3 cell line - immortalized mouse fibroblasts; assay: Crystal violet cytotoxicity test in normal cells; type: cell-based; conditions: summary statement; normal cells NIH/3T3 and PER49
From the text: To evaluate the toxicity of the tested compound on normal cells, the NIH/3T3 cell line - immortalized mouse fibroblasts and normal pericytes (PER49) were used.
as §1, §2

[4] = tested on: BALB/c mice; assay: Acute toxicity after oral administration (Acute Toxicity test TG425); type: in vivo; conditions: female BALB/c mice, oral by gastric probe, 40 mg of substance in corn oil, three mice, observed two weeks
From the text: The study was planned according to Acute Toxicity Test 425 (oral administration) - higher-lower-dose procedure, in accordance with the OECD regulation of October 3, 2008. The test procedure described in these guidelines is useful in minimizing the number of animals needed to estimate the acute toxicity after oral administration of potential drugs. In addition to the LD50 assessment and confidence intervals, the test allows for the observation of signs of toxicity. For this purpose, an experiment was agreed upon with the Local Ethics Committee for Animal Experimentation, using BALB/c mice. The TG425 method allows for the estimation of LD50 values with confidence intervals, and the results allow for the classification of substances according to the global harmonized system for the classification of chemicals that cause acute toxicity.
A sequential test, utilizing a maximum of 5 animals, was applied, which is known as the limit test. A test dose of either 2000 or uniquely 5000 mg/kg can be used. The testing procedures at 2000 and 5000 mg/kg differ slightly (see Sections 23-25 for the limit test at 2000 mg/kg and Sections 26-30 for the limit test at 5000 mg/kg). The selection of a sequential testing plan increases the statistical power, and a deliberate deviation from the limit test rejection procedure was made for compounds with an LD50 near the limit dose; i.e. committing an error on the side of caution. As with any limit test protocol, the probability of correct compound classification will decrease, as the actual LD50 value more closely resembles the limit dose.
• 1. Female Balb/c mice, which were 50-56 days postpartum, were used for the purposes of this experiment. • 2. Mice underwent a 1-week quarantine after being transported to the laboratory. • 3. The studied molecules (PER154A, PER160A, PER170A, PER176A) were suspended according to the TG425 protocol, i.e. 40 mg of substance in […] of laboratory corn oil and orally administered through a plastic gastro probe (used: 20ga (0.9 mm OD x 0.5 mm ID), 38 mm), which was suitable for the size of the animal (17-21 g). The mice were observed and weighed almost daily. • 4. Mouse housing conditions: up to 4 mice per cage; temperature: 23.2 - 23.40°C; humidity: 27.6 - 40.9% relative humidity. • 5. Two weeks later (time counted separately for each mouse), a resection was performed to analyze internal organs for any abnormalities.

SMILES | toxicity against cancer cells expressing normal RAS protein [1] | toxicity against cancer cells expressing KRASG12V [2] | toxicity against normal cells [3] | safety in acute oral toxicity test [4]
Cc1ccc(NC(=O)c2ccc3c(c2)C2C4CCC(C4)C2C(c2ccccc2)N3)cc1C (centres unmarked) [PER170A] | no toxicity | toxicity | no toxicity | safe for mice
O=C(Nc1ccc(Br)c(Cl)c1)c1ccc2c(c1)C1C3CCC(C3)C1C(c1ccccc1)N2 (centres unmarked) [PER176A] | no toxicity | toxicity | no toxicity | safe for mice
